Starred links: 1 amine or outer side, 2 acyl side, 3 side chain; linkers in the order of their positions; H or OH if unused. Positions of bridges follow the written chain, without caps; N, C: chain ends. Non-standard residues stand in square brackets, D forms with d. Residues, ends and D or L forms follow the SMILES beside them. *: point of attachment. hPhe(3,5-F2-4-CF3) = N[C@@H](CCc1cc(F)c(C(F)(F)F)c(F)c1)C(=O)O; hPhe(3-Cl-4-CF3) = N[C@@H](CCc1ccc(C(F)(F)F)c(Cl)c1)C(=O)O; hPhe(3-F,4-CF3) = N[C@@H](CCc1ccc(C(F)(F)F)c(F)c1)C(=O)O; X37 = O=C([C@H](CCc1ccc(C(F)F)c(F)c1)N[*:1])[*:2]; 3Oxa8azabicyclo(3.2.1)octane = C1CC2COCC1N2*; NMePhe(4-Me) = CN[C@@H](Cc1ccc(C)cc1)C(=O)O; NMedβ3hAla = C[C@H](CC(=O)[*:2])N(C)[*:1]; NMeGly(cPent) = CN[C@H](C(=O)O)C1CCCC1; NMeCha = CN[C@@H](CC1CCCCC1)C(=O)O; cisHyp = O=C(O)[C@@H]1C[C@H](O)CN1; NEtLeu = CCN[C@@H](CC(C)C)C(=O)O; NMeAhp(2) = CCCCC[C@H](NC)C(=O)O; NMeChg = CN[C@H](C(=O)O)C1CCCCC1; NMeI = CC[C@H](C)[C@H](NC)C(=O)O; NMeD = CN[C@@H](CC(=O)O)C(=O)O; NMeL = CN[C@@H](CC(C)C)C(=O)O; NMeV = CN[C@H](C(=O)O)C(C)C; d(β3hA) = C[C@@H](N)CC(=O)O; NMeS = CN[C@@H](CO)C(=O)O; NMeA = CN[C@@H](C)C(=O)O; Piperidide = C1CCN(*)CC1; Pyrrolidide = C1CCN(*)C1; Thz = O=C(O)[C@@H]1CSCN1; dNMeA = CN[C@H](C)C(=O)O; Ac5c = NC1(C(=O)O)CCCC1; Aze = O=C(O)[C@@H]1CCN1; Meb = Cc1ccc(C*)cc1; Sar = CNCC(=O)O; Propyl = CCC*
What follows are molecules tested on Human pancreatic cancer cell line AsPC-1 (assay: Measurement of AsPC-1 cell growth inhibition (AsPC-1 CGI)). Details: 96 h.
Assay type: cell-based
Procedure, shortened: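 AsPC-1 cells in 15% FBS RPMI-1640 were exposed to test compound for 96 hours at 37° C, with CellTiter-Glo as endpoint.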

SMILES	IC50 [µM]
CCCOC[C@H]1C(=O)N(C)CC(=O)N[C@@H](CCc2ccc(C(F)(F)F)c(Cl)c2)C(=O)N2CCC[C@H]2C(=O)NC2(CCCC2)C(=O)N(C)[C@@H](C2CCCC2)C(=O)N(C)[C@H](C(=O)N2C3CCC2COC3)CC(=O)N(CC)[C@@H](CC(C)C)C(=O)N[C@@H]([C@@H](C)CC)C(=O)N(C)[C@@H](C)C(=O)N2CC[C@H]2C(=O)N1C [Compound 1193] ([NEtLeu]I[NMeA][Aze][NMeS](Propyl)[Sar][hPhe(3-Cl-4-CF3)]P[Ac5c][NMeGly(cPent)][NMeD]-{3Oxa8azabicyclo(3.2.1)octane}; lactam N-11)	0.02 to 0.05
CC[C@H](C)[C@@H]1NC(=O)[C@H](CC(C)C)N(C)C(=O)C[C@@H](C(=O)N2CCCCC2)N(C)C(=O)[C@H](C2CCCC2)N(C)C(=O)C2(CCCC2)NC(=O)[C@@H]2CCCN2C(=O)[C@H](CCc2ccc(C(F)F)c(F)c2)NC(=O)CN(C)C(=O)[C@H](CC2CCCCC2)N(C)C(=O)[C@@H]2CCN2C(=O)[C@H](C)N(C)C1=O [Compound 2085, (5S,8S,11S,15S,18S,23aS,29S,35S,37aS)-8-((S)-sec-butyl)-35-(cyclohexylmethyl)-18-cyclopentyl-29-(4-(difluoromethyl)-3-fluorophenethyl)-11-isobutyl-5,6,12,16,19,33,36-heptamethyl-15-(piperidin-1-carbonyl)docosahydro-2H,4H-spiro[azeto[2,1-u]pyrrolo[2,1-i][1,4,7,10,13,16,19,22,25,28,31]undecazacyclotetratriacontyne-21,1′-cyclopentane]-4,7,10,13,17,20,23,28,31,34,37(14H,22H)-undecone] ([NMeL]I[NMeA][Aze][NMeCha][Sar][X37]P[Ac5c][NMeGly(cPent)][NMeD]-Piperidide; lactam N-11)	0.1 to 0.5
CCCOC[C@H]1C(=O)N(C)CC(=O)N[C@@H](CCc2cc(F)c(C(F)(F)F)c(F)c2)C(=O)N2CCC[C@H]2C(=O)NC2(CCCC2)C(=O)N(C)[C@@H](C2CCCC2)C(=O)N(C)[C@H](C(=O)N2C3CCC2COC3)CC(=O)N(C)[C@@H](CC(C)C)C(=O)N[C@@H]([C@@H](C)CC)C(=O)N(C)[C@@H](C)C(=O)N2CC[C@H]2C(=O)N1C [Compound 1355] ([NMeL]I[NMeA][Aze][NMeS](Propyl)[Sar][hPhe(3,5-F2-4-CF3)]P[Ac5c][NMeGly(cPent)][NMeD]-{3Oxa8azabicyclo(3.2.1)octane}; lactam N-11)	0.02 to 0.05
CC[C@H](C)[C@@H]1NC(=O)[C@H](CC(C)C)N(C)C(=O)C[C@@H](C(=O)N2CCCCC2)N(C)C(=O)[C@H](CC(C)C)N(C)C(=O)C2(CCCC2)NC(=O)[C@@H]2C[C@H](OCc3ccc(C)cc3)CN2C(=O)[C@H](CCc2ccc(C(F)(F)F)c(F)c2)NC(=O)CN(C)C(=O)[C@H](CC2CCCCC2)N(C)C(=O)CN(C)C(=O)CN(C)C1=O [Compound 2140] ([NMeL]I[Sar][Sar][NMeCha][Sar][hPhe(3-F,4-CF3)][cisHyp](Meb)[Ac5c][NMeL][NMeD]-Piperidide; lactam N-11)	> 0.5
CCCCC[C@H]1C(=O)N(C)CC(=O)N[C@@H](CCc2ccc(C(F)(F)F)c(Cl)c2)C(=O)N2CCC[C@H]2C(=O)NC2(CCCC2)C(=O)N(C)[C@@H](C(C)C)C(=O)N(C)[C@H](C(=O)N2CCCCC2)CC(=O)N(C)[C@@H](CC(C)C)C(=O)N[C@@H]([C@@H](C)CC)C(=O)N(C)[C@@H](C)C(=O)N2CC[C@H]2C(=O)N1C [Compound 1854] ([NMeL]I[NMeA][Aze][NMeAhp(2)][Sar][hPhe(3-Cl-4-CF3)]P[Ac5c][NMeV][NMeD]-Piperidide; lactam N-11)	0.1 to 0.5
CC[C@H](C)[C@@H]1NC(=O)[C@H](CC(C)C)N(C)C(=O)C[C@@H](C)N(C)C(=O)[C@H](C(C)C)N(C)C(=O)C2(CCCC2)NC(=O)[C@@H]2CCCN2C(=O)[C@H](CCc2ccc(C(F)(F)F)c(Cl)c2)NC(=O)CN(C)C(=O)[C@H](CC2CCCCC2)N(C)C(=O)[C@@H]2CCN2C(=O)CN(C)C1=O [Compound 1648] (cyclo([Ac5c][NMeV][NMedβ3hAla][NMeL]I[Sar][Aze][NMeCha][Sar][hPhe(3-Cl-4-CF3)]P))	0.1 to 0.5
CC[C@H](C)[C@@H]1NC(=O)[C@H](CC(C)C)N(C)C(=O)C[C@@H](C(=O)N2CCCCC2)NC(=O)[C@H](C(C)C)N(C)C(=O)C2(CCCC2)NC(=O)[C@@H]2CCCN2C(=O)[C@H](CCc2ccc(C(F)(F)F)c(Cl)c2)NC(=O)CN(C)C(=O)[C@H](CC2CCCCC2)N(C)C(=O)[C@@H]2CCN2C(=O)[C@H](C)N(C)C1=O [Compound 1353] ([NMeL]I[NMeA][Aze][NMeCha][Sar][hPhe(3-Cl-4-CF3)]P[Ac5c][NMeV]D-Piperidide; lactam N-11)	0.1 to 0.5
CC[C@H](C)[C@@H]1NC(=O)[C@H](CC(C)C)N(C)C(=O)C[C@@H](C(=O)N2CCCCC2)N(C)C(=O)[C@H](C2CCCCC2)N(C)C(=O)C2(CCCC2)NC(=O)[C@@H]2CSCN2C(=O)[C@H](CCc2ccc(C(F)(F)F)c(Cl)c2)NC(=O)CN(C)C(=O)[C@H](CC2CCCCC2)N(C)C(=O)CN(C)C(=O)CN(C)C1=O [Compound 1093] ([NMeL]I[Sar][Sar][NMeCha][Sar][hPhe(3-Cl-4-CF3)][Thz][Ac5c][NMeChg][NMeD]-Piperidide; lactam N-11)	0.02 to 0.05
CCCOC[C@H]1C(=O)N(C)CC(=O)N[C@@H](CCc2ccc(C(F)(F)F)c(F)c2)C(=O)N2CCC[C@H]2C(=O)NC2(CCCC2)C(=O)N(C)[C@@H]([C@@H](C)CC)C(=O)N(C)[C@H](C(=O)N2CCCC2)CC(=O)N(C)[C@@H](CC(C)C)C(=O)N[C@@H]([C@@H](C)CC)C(=O)N(C)[C@@H](C)C(=O)N2CC[C@H]2C(=O)N1C [Compound 684] ([NMeL]I[NMeA][Aze][NMeS](Propyl)[Sar][hPhe(3-F,4-CF3)]P[Ac5c][NMeI][NMeD]-Pyrrolidide; lactam N-11)	0.02 to 0.05
CC[C@H](C)[C@@H]1NC(=O)[C@H](CC(C)C)N(CC)C(=O)C[C@@H](C(=O)N(C)C)N(C)C(=O)[C@H]([C@@H](C)CC)N(C)C(=O)C2(CCCC2)NC(=O)[C@@H]2CCCN2C(=O)[C@H](CCc2ccc(C(F)(F)F)c(Cl)c2)NC(=O)CN(C)C(=O)[C@H](Cc2ccc(C)cc2)N(C)C(=O)[C@@H]2CCN2C(=O)[C@H](C)NC1=O [Compound 1287] ([NEtLeu]IA[Aze][NMePhe(4-Me)][Sar][hPhe(3-Cl-4-CF3)]P[Ac5c][NMeI][NMeD]-NMe2; lactam N-11)	0.02 to 0.05
CC[C@H](C)[C@@H]1NC(=O)[C@H](CC(C)C)N(C)C(=O)C[C@@H](C(=O)N2CCCCC2)N(C)C(=O)[C@H](C2CCCCC2)N(C)C(=O)C2(CCCC2)NC(=O)[C@@H]2CCCN2C(=O)[C@H](CCc2ccc(C(F)(F)F)c(Cl)c2)NC(=O)CN(C)C(=O)[C@H](Cc2ccc(C)cc2)N(C)C(=O)[C@@H]2CCN2C(=O)[C@H](C)N(C)C1=O [Compound 1795] ([NMeL]I[NMeA][Aze][NMePhe(4-Me)][Sar][hPhe(3-Cl-4-CF3)]P[Ac5c][NMeChg][NMeD]-Piperidide; lactam N-11)	0.05 to 0.1
CC[C@H](C)[C@@H]1NC(=O)[C@H](C)N(C)C(=O)C[C@@H](C)NC(=O)[C@H](C2CCCC2)N(C)C(=O)C2(CCCC2)NC(=O)[C@@H]2CCCN2C(=O)[C@H](CCc2ccc(C(F)(F)F)c(Cl)c2)NC(=O)[C@@H](C)N(C)C(=O)[C@H](C(C)C)N(C)C(=O)[C@@H]2CCN2C(=O)[C@H](C)N(C)C1=O [Compound 1066] (cyclo([Ac5c][NMeGly(cPent)][d(β3hA)][NMeA]I[NMeA][Aze][NMeV][dNMeA][hPhe(3-Cl-4-CF3)]P))	0.1 to 0.5
